Data set [1] is described as follows: Volume of distribution at steady state in Wistar Han rat at 2 mg/kg, iv. It is filed as ADME, organism-based. Particulars: in vivo, read-out: Vdss.
The species named for data set [2] is Homo sapiens. Kind of data set: Selectivity index, ratio of IC50 for FGR (unknown origin) to IC50 for recombinant full length BTK (unknown origin) expressed in baculovirus infected Sf9 cells.
For data set [3], the species on record is Homo sapiens. Description: Selectivity index, ratio of IC50 for TXK (unknown origin) to IC50 for recombinant full length BTK (unknown origin) expressed in baculovirus infected Sf9 cells.
For data set [4], the target named is Tyrosine-protein kinase BTK (Homo sapiens, UniProt Q06187). Kind of data set: Inhibition of recombinant full length BTK (unknown origin) expressed in baculovirus infected Sf9 cells using Biotin-EQEDEPEGDYFEWLE-NH2 peptide as substrate incubated for 60 mins followed by further incubation with substrate and ATP for 120 mins by TR-FRET assay.
Tyrosine-protein kinase BTK, sequence (Q06187 whole entry): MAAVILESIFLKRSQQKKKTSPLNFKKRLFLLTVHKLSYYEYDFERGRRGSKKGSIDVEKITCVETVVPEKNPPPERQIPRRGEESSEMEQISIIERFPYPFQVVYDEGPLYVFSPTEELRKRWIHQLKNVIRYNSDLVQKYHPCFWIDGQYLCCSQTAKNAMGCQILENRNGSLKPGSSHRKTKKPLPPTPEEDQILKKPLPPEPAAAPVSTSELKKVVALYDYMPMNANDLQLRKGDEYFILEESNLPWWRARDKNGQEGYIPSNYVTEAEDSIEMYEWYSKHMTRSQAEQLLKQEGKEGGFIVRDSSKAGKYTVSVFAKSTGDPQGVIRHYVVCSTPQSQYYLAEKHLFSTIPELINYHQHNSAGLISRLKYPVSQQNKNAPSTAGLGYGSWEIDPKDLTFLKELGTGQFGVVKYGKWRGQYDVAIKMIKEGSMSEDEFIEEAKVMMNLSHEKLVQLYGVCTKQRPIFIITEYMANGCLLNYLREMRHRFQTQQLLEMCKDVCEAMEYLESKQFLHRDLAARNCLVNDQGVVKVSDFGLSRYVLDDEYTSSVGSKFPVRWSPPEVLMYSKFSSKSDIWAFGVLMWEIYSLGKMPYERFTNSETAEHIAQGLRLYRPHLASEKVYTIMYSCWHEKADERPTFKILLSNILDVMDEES
The target in data set [5] is Tyrosine-protein kinase Fgr (Homo sapiens, UniProt P09769). Description: Inhibition of FGR (unknown origin).
Tyrosine-protein kinase Fgr, sequence (P09769 whole entry): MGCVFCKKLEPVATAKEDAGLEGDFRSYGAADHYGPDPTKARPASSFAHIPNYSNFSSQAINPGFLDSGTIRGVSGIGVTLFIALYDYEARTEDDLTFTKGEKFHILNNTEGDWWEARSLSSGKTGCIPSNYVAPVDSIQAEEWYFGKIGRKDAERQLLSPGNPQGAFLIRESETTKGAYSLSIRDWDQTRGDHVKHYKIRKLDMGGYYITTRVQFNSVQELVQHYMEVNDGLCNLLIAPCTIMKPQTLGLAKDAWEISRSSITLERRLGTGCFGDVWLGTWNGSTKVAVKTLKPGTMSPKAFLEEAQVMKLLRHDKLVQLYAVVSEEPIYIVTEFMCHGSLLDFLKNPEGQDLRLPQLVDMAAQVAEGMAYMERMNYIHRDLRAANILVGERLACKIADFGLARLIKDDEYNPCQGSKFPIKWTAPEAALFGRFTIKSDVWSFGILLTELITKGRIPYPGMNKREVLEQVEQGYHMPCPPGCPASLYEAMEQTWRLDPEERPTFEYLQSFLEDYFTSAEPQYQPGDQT
For data set [6], the species on record is Homo sapiens. Kind of data set: Selectivity index, ratio of IC50 for ERBB4 (unknown origin) to IC50 for recombinant full length BTK (unknown origin) expressed in baculovirus infected Sf9 cells.
The target in data set [7] is T1, Tyrosine-protein kinase TXK (Homo sapiens, UniProt P42681).
T1 sequence (P42681 whole entry): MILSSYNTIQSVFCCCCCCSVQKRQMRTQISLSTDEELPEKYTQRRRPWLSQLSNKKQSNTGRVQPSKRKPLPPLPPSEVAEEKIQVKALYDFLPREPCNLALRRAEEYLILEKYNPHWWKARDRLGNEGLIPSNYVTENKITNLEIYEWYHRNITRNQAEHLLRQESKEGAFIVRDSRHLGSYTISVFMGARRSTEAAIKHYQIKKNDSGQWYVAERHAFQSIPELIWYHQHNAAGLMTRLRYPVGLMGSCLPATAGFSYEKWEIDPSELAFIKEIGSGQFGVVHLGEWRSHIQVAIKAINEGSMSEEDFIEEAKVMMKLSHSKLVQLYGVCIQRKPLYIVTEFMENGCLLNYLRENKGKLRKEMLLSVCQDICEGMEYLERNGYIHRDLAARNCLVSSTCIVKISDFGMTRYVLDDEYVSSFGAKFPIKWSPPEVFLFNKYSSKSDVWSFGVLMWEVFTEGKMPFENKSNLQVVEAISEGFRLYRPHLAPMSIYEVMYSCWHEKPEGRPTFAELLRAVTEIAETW
Kind of data set: Inhibition of TXK (unknown origin).

The nature of data set [8]: Half life in Wistar Han rat at 2 mg/kg, iv. The note with it: in vivo. The format is ADME, organism-based.
In data set [9] the target is T2, Tyrosine-protein kinase Tec (Homo sapiens, UniProt P42680).
T2 sequence (P42680 whole entry): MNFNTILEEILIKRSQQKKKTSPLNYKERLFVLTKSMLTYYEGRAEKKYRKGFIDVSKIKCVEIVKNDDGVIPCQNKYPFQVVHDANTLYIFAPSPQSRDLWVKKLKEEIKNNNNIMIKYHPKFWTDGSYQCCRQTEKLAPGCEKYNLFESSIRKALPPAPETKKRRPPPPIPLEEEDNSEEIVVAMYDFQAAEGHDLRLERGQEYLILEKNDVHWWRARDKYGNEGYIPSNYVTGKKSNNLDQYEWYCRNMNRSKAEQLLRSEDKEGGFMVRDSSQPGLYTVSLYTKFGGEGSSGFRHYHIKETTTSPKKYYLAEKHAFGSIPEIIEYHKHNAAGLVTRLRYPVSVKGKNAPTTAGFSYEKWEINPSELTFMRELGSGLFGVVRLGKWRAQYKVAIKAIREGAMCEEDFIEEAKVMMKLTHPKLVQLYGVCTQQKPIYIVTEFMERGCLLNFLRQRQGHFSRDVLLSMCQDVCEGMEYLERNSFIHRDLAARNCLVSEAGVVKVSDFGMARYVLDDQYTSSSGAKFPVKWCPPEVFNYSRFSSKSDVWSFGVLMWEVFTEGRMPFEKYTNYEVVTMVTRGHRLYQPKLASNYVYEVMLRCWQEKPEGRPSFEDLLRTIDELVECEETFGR
Kind of data set: Inhibition of TEC (unknown origin).

The nature of data set [10]: Oral bioavailability in Beagle dog at 2 mg/kg. The format is ADME, organism-based, Canis lupus familiaris. The note with it: in vivo.
A short description of data set [11]: Cmax in Beagle dog at 2 mg/kg, po. The format is ADME, organism-based, Canis lupus familiaris. Details: route oral, dose 2 mg/kg. Particulars: in vivo.
The test system of a further data set is Rattus norvegicus. Description: Antiarthritic activity in Lewis rat model of collagen-induced arthritis assessed as decrease in paw thickness at 1 to 30 mg/kg, po qd and measured for 30 days. The format is functional, organism-based. Particulars: dose mg/kg 1-30, time 30.0 day.
Data set [12] can be described thus: Volume of distribution at steady state in Beagle dog at 1 mg/kg, iv. The format is ADME, organism-based, Canis lupus familiaris. The note with it: in vivo, read-out: Vdss.
A short description of data set [13]: AUC in Beagle dog at 1 mg/kg, iv. The format is ADME, organism-based, Canis lupus familiaris. Details: dose 1 mg/kg. Particulars: in vivo.
Data set [14] can be described thus: Tmax in Beagle dog at 2 mg/kg, po. It is filed as ADME, organism-based, Canis lupus familiaris. Particulars: in vivo.
Data set [15] is described as follows: Half life in Beagle dog at 1 mg/kg, iv. It is filed as ADME, organism-based, Canis lupus familiaris. The note with it: in vivo.
Data set [16] in a line: Clearance in Beagle dog at 1 mg/kg, iv. The format is ADME, organism-based, Canis lupus familiaris. The note with it: in vivo.

pIC50: −log10 of the molar value.

As to `Nc1nccn2c([C@@H]3CC[C@H]4COC(=O)N4C3)nc(-c3ccc(C(=O)Nc4cc(C(F)(F)F)ccn4)cc3)c12`, the Vd in [1] was 1.2 L/kg. The values for the Ratio IC50 in the data set filed under Homo sapiens [2], in the data set listed under Homo sapiens [3] and in the data set listed under Homo sapiens [6] were 313, 554 and 410, respectively. The pIC50 in [4] was 10.08; in [5] it was 7.59; in data set [7] it was 7.34; in data set [9] it was 7.04. In addition, in data set [8], the half-life was 5.1 h.

Turning to `CC1(C)OC(=O)N2C[C@H](c3nc(-c4ccc(C(=O)Nc5cc(C(F)(F)F)ccn5)cc4)c4c(N)nccn34)CC[C@H]21`, the Vd in data set [1] turned out to be 5.6 L/kg. The Ratio IC50 in the data set listed under Homo sapiens [2] turned out to be 283; in the data set listed under Homo sapiens [3], 125; in the data set listed under Homo sapiens [6], 190. In addition, the pIC50 is 9.92 in data set [4], 7.47 in data set [5], 7.82 in data set [7] and 7.57 in [9]. The half-life in [8] was 3.6 h.

In [10], `Nc1nccn2c([C@@H]3CC[C@H]4CCC(=O)N4C3)nc(-c3ccc(C(=O)Nc4cc(C(F)(F)F)ccn4)cc3)c12` displayed a bioavailability of 100%. The same compound showed a Cmax in data set [11] of 1700 nM. Further, the Vd in data set [1] stood at 0.78 L/kg; in [12], 1.5 L/kg. Besides, the Activity entry in the data set with Rattus norvegicus was “Dose-dependent effect”. Moreover, the Ratio IC50 in the data set filed under Homo sapiens [3] was 330; in the data set filed under Homo sapiens [6], 240. Also, the AUC in [13] amounted to 2.8 µM·h. The Tmax in [14] was found to be 1 h. Besides, the half-life in data set [15] was 3.6 h; in data set [8], 2.8 h. Further, in data set [16], the clearance came out at 11 mL/min/kg. The pIC50 is 7.48 in data set [7] and 7.20 in [9].

By pIC50 is commonly meant the IC50 on a negative log10 scale, so that one unit is a factor of ten. The half-life is the time needed for the level to fall by half in the phase considered. Lower therefore signals rapid decline. What is called bioavailability is dose-corrected exposure relative to a reference, in per cent. Read a low bioavailability as little systemic uptake. What is called Cmax is the peak of the concentration-time curve. Broadly, the AUC is the area under the concentration-time curve, a measure of exposure. Read a low AUC as low exposure. As usually defined, the Tmax is the time at which the peak concentration occurs. For orientation: clearance means a measure of how efficiently the substance is removed, as volume per time.
